# Reference: patent US12258540B2, “Environmentally compatible detergents for inactivation of lipid-enveloped viruses” (TAKEDA PHARMACEUTICAL COMPANY LIMITED, priority 2017, dated 2025)
# How the values were obtained:
# aquatic organisms = details: Triton X-100 and its break-down products; recent ecological studies; cited from earlier work
# pseudorabies virus (PRV) = type: cell-based; details: S/D treatment 0.04%-0.06% detergent, IVIG-containing liquid, 17° C.±1° C., FIG. 9A
Substance,endocrine disrupter behaviour in aquatic organisms (aquatic organisms),"inactivation kinetics compared to Triton X-100, PRV (pseudorabies virus (PRV))"
"4-(1,1,3,3-tetramethylbutyl)phenol, ethoxylated [Triton X-100]",can potentially behave as endocrine disrupters in aquatic organisms,
4-tert-octylbenzyl alcohol polyethoxylate,,identical inactivation kinetics
